The test system of one experiment is TNF-α. Nature of the experiment: Whole bovine blood assay, LPS-induced TNF-α. The conditions noted are these: fresh whole bovine blood, LPS stimulant, top drug concentration 250 μM. It is filed as cell-based. As to the method:
Whole Blood Assay-Fresh whole bovine blood samples were collected into heparinized vacutainer tubes. Assay plates were prepared with 25 μL of drug diluted in PBS at varying concentration in 96 round bottom wells, then 225 μL of blood was added and plates incubated at 37° C. for 4 hours. Cells were stimulated with LPS (or PBS for controls) by adding 25 μL to the plates at a final concentration of 1 μg/mL and incubated at 37° C. for 18 hours. To collect plasma, plates were centrifuged at 2,000×g for 10 minutes and 100 μL of supernatant was transferred to a 96 well polypropylene plate that was sealed and stored at −80° C. Samples were assayed for cytokines using the Meso Scale Discovery (MSD) platform (described below). This same MSD platform was used to assess cytokines in the plasma collected directly from drug treated animals.
Cytokine Detection—An MSD U-Plex cytokine assay was developed following the MSD U-Plex protocol guide and included biotinylated capture antibodies against: bovine Interleukin (IL)-1β (Biorad), bovine IL-6 (R&D Systems) and bovine tumor necrosis factor (TNF)-α (R&D Systems). […] Assay calibrators (Kingfisher) were diluted to a concentration of […] in control lithium heparin plasma, followed by 4-fold serial dilutions into plasma. […] Antibodies were used at the following concentrations: anti-IL-1β at 1 μg/mL, anti-IL-6 at 1 μg/mL and anti-TNF-α at 0.5 μg/mL. Cytokines were quantified according to manufacturer's instructions using a chemiluminescent readout. In brief, 0.5 mL of all biotinylated antibodies were diluted to 10 μg/mL with Diluent 100 and paired to their respective linkers by adding 750 μL of supplied Linker solution and incubated for 30 minutes followed by addition of Stop solution for another 30 minutes. The linked antibodies were then diluted 10-fold into Stop solution. Plates were coated by adding 50 μL of antibody solutions per well and incubated covered and shaking for 1 hour at room temperature. Plates were washed three times with PBS/Tween20 prior to samples or standards being added at 30 μL per well and incubated as above. Plates were washed three times before detection antibodies were added along with 2% goat and rabbit serum to block and incubated same as above. Plates were washed a further three times before addition of 150 μL 2X Read buffer and read immediately on the SI6000 instrument (MSD). For soluble protein levels, a BCA protein kit (Thermofisher) was used. The cytokine concentrations (pg/mL) were normalized to the total protein levels for each sample. [Bassel et. al., BMC Veterinary Research (2020) 16:168]
Therefore, a fresh whole bovine blood assay was developed with LPS as a stimulant (TLR-4 agonist) and with IL-1β and TNF-α as the read-out. Compounds of the invention were evaluated against a positive control for their ability to inhibit LPS-induced IL-1β and TNF-α as an overall evaluation of relative potency and modulation of target pathways.
TNFα is a cell signaling protein, cytokine, that plays a key role in both acute and chronic inflammation. In the bovine whole blood in vitro screening assay the inhibition of TNFα as induced by stimulation by lipopolysaccharide (LPS) and as measured by half the maximal inhibitory concentration (IC50) is recognized as the primary biomarker of immunomodulation potency upon pretreatment with the compounds of the invention. IL-1 B is a mediator of the inflammation response and is involved in a number of cellular activities including proliferation, differentiation and apoptosis. IL-1ß is also released upon cellular stress or cytotoxicity or upon TLR stimulation. […] In order to estimate a therapeutic index from the in vitro assay a differential between the TNFα IC50 (immunomodulation potency) versus the perceived cellular toxicity concentration (IL-1β release or overstimulation) was utilized.

Another experiment relates to IL-6. The experiment in a line: Whole bovine blood assay, LPS-induced IL-6. It is filed as cell-based. The conditions noted are these: fresh whole bovine blood, LPS stimulant, top drug concentration 250 μM.

In the case of `CC[C@H]1OC(=O)[C@H](C)[C@@H](O[C@H]2C[C@@](C)(OC)[C@](O)(CNCc3ccc(C(F)(F)F)cc3)[C@H](C)O2)[C@H](C)[C@@H](O[C@@H]2O[C@H](C)C[C@H](N(C)S(=O)(=O)c3ccc(Cl)cc3)[C@H]2O)[C@](C)(O)C[C@@H](C)CN[C@H](C)[C@@H](O)[C@]1(C)O` [Example B-25], the figures for the IC50 with TNF-α and in the experiment with IL-6 were 5 µM and 17 µM, respectively.
The like results for `CC[C@H]1OC(=O)[C@H](C)[C@@H](O[C@H]2C[C@@](C)(OC)[C@](O)(CNc3ccc(OC)cc3)[C@H](C)O2)[C@H](C)[C@@H](O[C@@H]2O[C@H](C)C[C@H](N(C)S(=O)(=O)c3ccc(Cl)cc3)[C@H]2O)[C@](C)(O)C[C@@H](C)CN[C@H](C)[C@@H](O)[C@]1(C)O` [Example B-27] were, in that order, 17 µM and 33 µM.
The like results for `CC[C@H]1OC(=O)[C@H](C)[C@@H](O[C@H]2C[C@@](C)(OC)[C@](O)(CNCc3cscn3)[C@H](C)O2)[C@H](C)[C@@H](O[C@@H]2O[C@H](C)C[C@H](N(C)S(=O)(=O)c3ccc(Cl)cc3)[C@H]2O)[C@](C)(O)C[C@@H](C)CN[C@H](C)[C@@H](O)[C@]1(C)O` [Example B-37] were, in that order, 8 µM and 13 µM.
`CCCNC[C@]1(O)[C@H](C)O[C@@H](O[C@H]2[C@H](C)[C@@H](O[C@@H]3O[C@H](C)C[C@H](N(C)S(=O)(=O)N(C)c4ccc(F)cc4)[C@H]3O)[C@](C)(O)C[C@@H](C)CN[C@H](C)[C@@H](O)[C@](C)(O)[C@@H](CC)OC(=O)[C@@H]2C)C[C@@]1(C)OC` [Example B-61]: the IC50 was 37 µM with TNF-α and 71 µM with IL-6.
With `CCCNC[C@]1(O)[C@H](C)O[C@@H](O[C@H]2[C@H](C)[C@@H](O[C@@H]3O[C@H](C)C[C@H](N(C)S(=O)(=O)c4ccccc4NC4CC4)[C@H]3O)[C@](C)(O)C[C@@H](C)CN[C@H](C)[C@@H](O)[C@](C)(O)[C@@H](CC)OC(=O)[C@@H]2C)C[C@@]1(C)OC` [Example B-63], the values for the IC50 in the experiment with TNF-α and with IL-6 were 9 µM and 10 µM, respectively.
For `CC[C@H]1OC(=O)[C@H](C)[C@@H](O[C@H]2C[C@@](C)(OC)[C@](O)(CNC3CC3)[C@H](C)O2)[C@H](C)[C@@H](O[C@@H]2O[C@H](C)C[C@H](N(C)S(=O)(=O)Nc3ccc(C(F)(F)F)cc3)[C@H]2O)[C@](C)(O)C[C@@H](C)CN[C@H](C)[C@@H](O)[C@]1(C)O` [Example B-70] the same measures were 4 µM and 13 µM.
For `CC[C@H]1OC(=O)[C@H](C)[C@@H](O[C@H]2C[C@@](C)(OC)[C@](O)(CNCC(C)C)[C@H](C)O2)[C@H](C)[C@@H](O[C@@H]2O[C@H](C)C[C@H](N(C)S(=O)(=O)Nc3ccc(C(F)(F)F)cc3)[C@H]2O)[C@](C)(O)C[C@@H](C)CN[C@H](C)[C@@H](O)[C@]1(C)O` [Example B-85] the same measures were 9 µM and 26 µM.
Turning to `CC[C@H]1OC(=O)[C@H](C)[C@@H](O[C@H]2C[C@@](C)(OC)[C@](O)(CNCc3ccncc3)[C@H](C)O2)[C@H](C)[C@@H](O[C@@H]2O[C@H](C)C[C@H](N(C)S(=O)(=O)Nc3ccc(C(F)(F)F)cc3)[C@H]2O)[C@](C)(O)C[C@@H](C)CN[C@H](C)[C@@H](O)[C@]1(C)O` [Example B-89], the IC50 with TNF-α amounted to 9 µM; in the experiment on IL-6, 23 µM.
The like results for `CC[C@H]1OC(=O)[C@H](C)[C@@H](O[C@H]2C[C@@](C)(OC)[C@](O)(CNCc3ccccc3)[C@H](C)O2)[C@H](C)[C@@H](O[C@@H]2O[C@H](C)C[C@H](N(C)S(=O)(=O)Nc3ccc(C(F)(F)F)cc3)[C@H]2O)[C@](C)(O)C[C@@H](C)CN[C@H](C)[C@@H](O)[C@]1(C)O` [Example B-90] were, in that order, 8 µM and 26 µM.
The like results for `CCCNC[C@]1(O)[C@H](C)O[C@@H](O[C@H]2[C@H](C)[C@@H](O[C@@H]3O[C@H](C)C[C@H](N(C)S(=O)(=O)c4cnc5ccccn45)[C@H]3Oc3ccc(OC)cc3)[C@](C)(O)C[C@@H](C)CN[C@H](C)[C@@H](O)[C@](C)(O)[C@@H](CC)OC(=O)[C@@H]2C)C[C@@]1(C)OC` [Example B-118] were, in that order, 45 µM and 10 µM.
The like results for `CC[C@H]1OC(=O)[C@H](C)[C@@H](O[C@H]2C[C@@](C)(OC)[C@](O)(CNCc3ccccc3)[C@H](C)O2)[C@H](C)[C@@H](O[C@@H]2O[C@H](C)C[C@H](N(C)S(=O)(=O)c3nccn3C)[C@H]2Oc2ccc(F)cc2)[C@](C)(O)C[C@@H](C)CN[C@H](C)[C@@H](O)[C@]1(C)O` [Example B-141] were, in that order, 7 µM and 4 µM.
In the case of `CCCNC[C@]1(O)[C@H](C)O[C@@H](O[C@H]2[C@H](C)[C@@H](O[C@@H]3O[C@H](C)C[C@H](N(CCC)S(=O)(=O)c4ccc(Cl)cc4)[C@H]3O)[C@](C)(O)C[C@@H](C)CN[C@H](C)[C@@H](O)[C@](C)(O)[C@@H](CC)OC(=O)[C@@H]2C)C[C@@]1(C)OC` [Example B-142], the IC50 came out at 8 µM with TNF-α (Bos taurus) and 9 µM in the experiment with IL-6 (Bos taurus).
As to `CCCNC[C@]1(O)[C@H](C)O[C@@H](O[C@H]2[C@H](C)[C@@H](O[C@@H]3O[C@H](C)C[C@H](N(CC(C)C)S(=O)(=O)c4ccc(OC)cc4)[C@H]3O)[C@](C)(O)C[C@@H](C)CN[C@H](C)[C@@H](O)[C@](C)(O)[C@@H](CC)OC(=O)[C@@H]2C)C[C@@]1(C)OC` [Example B-149], the IC50 in the experiment on TNF-α was 7 µM; with IL-6, 8 µM.
In the case of `CCCNC[C@]1(O)[C@H](C)O[C@@H](O[C@H]2[C@H](C)[C@@H](O[C@@H]3O[C@H](C)C[C@H](N(CC(C)C)S(=O)(=O)c4ccc(Cl)cc4)[C@H]3O)[C@](C)(O)C[C@@H](C)CN[C@H](C)[C@@H](O)[C@](C)(O)[C@@H](CC)OC(=O)[C@@H]2C)C[C@@]1(C)OC` [Example B-150], the values for the IC50 with TNF-α and with IL-6 were 4 µM and 5 µM, respectively.
The like results for `CCCNC[C@]1(O)[C@H](C)O[C@@H](O[C@H]2[C@H](C)[C@@H](O[C@@H]3O[C@H](C)C[C@H](N(C)S(=O)(=O)c4ccc(Cl)cc4)[C@H]3O)[C@](C)(O)C[C@@H](C)CN(CCC)[C@H](C)[C@@H](O)[C@](C)(O)[C@@H](CC)OC(=O)[C@@H]2C)C[C@@]1(C)OC` [Example B-151] were, in that order, 8 µM and 10 µM.
The like results for `CCCNC[C@]1(O)[C@H](C)O[C@@H](O[C@H]2[C@H](C)[C@@H](O[C@@H]3O[C@H](C)C[C@H](N(C)S(=O)(=O)c4ccc(Cl)cc4)[C@H]3O)[C@](C)(O)C[C@@H](C)CN(C)[C@H](C)[C@@H](O)[C@](C)(O)[C@@H](CC)OC(=O)[C@@H]2C)C[C@@]1(C)OC` [Example B-153] were, in that order, 7 µM and 10 µM.
For `CCCNC[C@]1(O)[C@H](C)O[C@@H](O[C@H]2[C@H](C)[C@@H](O[C@@H]3O[C@H](C)C[C@H](N(C)S(=O)(=O)c4ccc(C)cc4)[C@H]3O)[C@](C)(O)C[C@@H](C)CN(CCC)[C@H](C)[C@@H](O)[C@](C)(O)[C@@H](CC)OC(=O)[C@@H]2C)C[C@@]1(C)OC` [Example B-154], the IC50 was 7 µM in the experiment on TNF-α and 15 µM in the experiment with IL-6.
For `CCCN1C[C@H](C)C[C@@](C)(O)[C@H](O[C@@H]2O[C@H](C)C[C@H](N(C)S(N)(=O)=O)[C@H]2O)[C@@H](C)[C@H](O[C@H]2C[C@@](C)(OC)[C@](O)(CNc3ccc(OC)cc3)[C@H](C)O2)[C@@H](C)C(=O)O[C@H](CC)[C@@](C)(O)[C@H](O)[C@H]1C` [Example B-157] the same measures were 22 µM and 31 µM.
For `CC[C@H]1OC(=O)[C@H](C)[C@@H](O[C@H]2C[C@@](C)(OC)[C@](O)(CN3CCCCC3)[C@H](C)O2)[C@H](C)[C@@H](O[C@@H]2O[C@H](C)C[C@H](N(C)S(=O)(=O)c3ccc(C(F)(F)F)cc3)[C@H]2O)[C@](C)(O)C[C@@H](C)CN[C@H](C)[C@@H](O)[C@]1(C)O` [Example C-18] the same measures were 6 µM and 5 µM.

The values are drawn from patent US20250236616A1, “IMMUNOMODULATING AZALIDES” (Zoetis Services LLC, priority 2021, published 2025).
